Measured values: PubChem BioAssay (NCI)
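1) Cells in 96-well plates. 2) Compound, 48 h, 5 concentrations. 3) Linear interpolation between surrounding doses. 4) Unreached endpoint = highest concentration. The concentration for full growth arrest is given as TGI.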

What was measured:
Experiment in all cases: NCI-60 cell line screen, 48 h
SW-620 colon = tested on: SW-620 colon
CAKI-1 renal = tested on: CAKI-1 renal
EKVX NSCLC = tested on: EKVX NSCLC
MDA-N = tested on: MDA-N
HOP-62 NSCLC = tested on: HOP-62 NSCLC
OVCAR-3 ovarian = tested on: OVCAR-3 ovarian
NCI-H226 lung = tested on: NCI-H226 lung
SN12C renal = tested on: SN12C renal
MALME-3M melanoma = tested on: MALME-3M melanoma
MOLT-4 leukemia = tested on: MOLT-4 leukemia
NCI/ADR-RES ovarian = tested on: NCI/ADR-RES ovarian
SNB-19 CNS = tested on: SNB-19 CNS
HCC-2998 colon = tested on: HCC-2998 colon
RPMI-8226 leukemia = tested on: RPMI-8226 leukemia
SK-MEL-5 melanoma = tested on: SK-MEL-5 melanoma
OVCAR-5 ovarian = tested on: OVCAR-5 ovarian

## CC(C)=C/C=C1/CS(=O)(=O)C=C1C
SW-620 colon
  TGI: > 100 µM
CAKI-1 renal
  TGI: > 100 µM
EKVX NSCLC
  TGI: > 100 µM
MDA-N
  TGI: > 100 µM
HOP-62 NSCLC
  TGI: > 100 µM
OVCAR-3 ovarian
  TGI: > 100 µM
NCI-H226 lung
  TGI: > 100 µM
SN12C renal
  TGI: > 100 µM
MALME-3M melanoma
  TGI: > 100 µM
MOLT-4 leukemia
  TGI: > 100 µM
NCI/ADR-RES ovarian
  TGI: > 100 µM
SNB-19 CNS
  TGI: > 100 µM
HCC-2998 colon
  TGI: > 100 µM
RPMI-8226 leukemia
  TGI: > 100 µM
SK-MEL-5 melanoma
  TGI: > 100 µM
OVCAR-5 ovarian
  TGI: > 100 µM

## COc1cc(C(c2ccc3c(c2)OCO3)N2C(=O)CCC2C(=O)O)cc(OC)c1OC (stereo not given)
SW-620 colon
  TGI: > 100 µM
CAKI-1 renal
  TGI: > 100 µM
EKVX NSCLC
  TGI: > 100 µM
MDA-N
  TGI: > 100 µM
HOP-62 NSCLC
  TGI: > 100 µM
OVCAR-3 ovarian
  TGI: > 100 µM
NCI-H226 lung
  TGI: > 100 µM
SN12C renal
  TGI: > 100 µM
MALME-3M melanoma
  TGI: > 100 µM
MOLT-4 leukemia
  TGI: > 100 µM
NCI/ADR-RES ovarian
  TGI: > 100 µM
SNB-19 CNS
  TGI: > 100 µM
HCC-2998 colon
  TGI: > 100 µM
RPMI-8226 leukemia
  TGI: > 100 µM
SK-MEL-5 melanoma
  TGI: > 100 µM
OVCAR-5 ovarian
  TGI: > 100 µM

## CC(=O)OCC1OC(n2c(=O)[nH]c(=O)c3sccc32)C(Br)C1OC(C)=O (stereo not given)
SW-620 colon
  TGI: > 100 µM
CAKI-1 renal
  TGI: > 100 µM
EKVX NSCLC
  TGI: > 100 µM
MDA-N
  TGI: > 100 µM
HOP-62 NSCLC
  TGI: > 100 µM
OVCAR-3 ovarian
  TGI: > 100 µM
NCI-H226 lung
  TGI: > 100 µM
SN12C renal
  TGI: > 100 µM
MALME-3M melanoma
  TGI: > 100 µM
MOLT-4 leukemia
  TGI: > 100 µM
NCI/ADR-RES ovarian
  TGI: > 100 µM
SNB-19 CNS
  TGI: > 100 µM
HCC-2998 colon
  TGI: > 100 µM
RPMI-8226 leukemia
  TGI: > 100 µM
SK-MEL-5 melanoma
  TGI: > 100 µM
OVCAR-5 ovarian
  TGI: > 100 µM

## O=C1C[C@@H](c2ccccc2)O[C@@H](c2ccccc2)C1
SW-620 colon
  TGI: > 100 µM
CAKI-1 renal
  TGI: > 100 µM
EKVX NSCLC
  TGI: > 100 µM
MDA-N
  TGI: > 100 µM
HOP-62 NSCLC
  TGI: > 100 µM
OVCAR-3 ovarian
  TGI: > 100 µM
NCI-H226 lung
  TGI: > 100 µM
SN12C renal
  TGI: > 100 µM
MALME-3M melanoma
  TGI: > 100 µM
MOLT-4 leukemia
  TGI: > 100 µM
NCI/ADR-RES ovarian
  TGI: > 100 µM
SNB-19 CNS
  TGI: > 100 µM
HCC-2998 colon
  TGI: > 100 µM
RPMI-8226 leukemia
  TGI: > 100 µM
SK-MEL-5 melanoma
  TGI: > 100 µM
OVCAR-5 ovarian
  TGI: > 100 µM

## N#C/C(=C\c1c[nH]c2ccccc12)C(=O)c1ccc(O)c(O)c1
SW-620 colon
  TGI: > 100 µM
CAKI-1 renal
  TGI: > 100 µM
EKVX NSCLC
  TGI: > 100 µM
MDA-N
  TGI: > 100 µM
HOP-62 NSCLC
  TGI: > 61.5 µM
OVCAR-3 ovarian
  TGI: 17.2 µM
NCI-H226 lung
  TGI: > 100 µM
SN12C renal
  TGI: > 91.5 µM
MALME-3M melanoma
  TGI: > 78.8 µM
MOLT-4 leukemia
  TGI: 98.1 µM
NCI/ADR-RES ovarian
  TGI: 70.1 µM
SNB-19 CNS
  TGI: 98.1 µM
HCC-2998 colon
  TGI: > 100 µM
RPMI-8226 leukemia
  TGI: > 31.6 µM
SK-MEL-5 melanoma
  TGI: > 100 µM
OVCAR-5 ovarian
  TGI: > 100 µM
